{"source": "ChEMBL document CHEMBL5385884", "about": "“Expanding role of CXCR2 and therapeutic potential of CXCR2 antagonists in inflammatory diseases and cancers” (Eur J Med Chem, 2023)", "key": {"[1]": {"target": "C-X-C chemokine receptor type 4 (Homo sapiens, UniProt P61073)", "sequence (P61073 whole entry)": "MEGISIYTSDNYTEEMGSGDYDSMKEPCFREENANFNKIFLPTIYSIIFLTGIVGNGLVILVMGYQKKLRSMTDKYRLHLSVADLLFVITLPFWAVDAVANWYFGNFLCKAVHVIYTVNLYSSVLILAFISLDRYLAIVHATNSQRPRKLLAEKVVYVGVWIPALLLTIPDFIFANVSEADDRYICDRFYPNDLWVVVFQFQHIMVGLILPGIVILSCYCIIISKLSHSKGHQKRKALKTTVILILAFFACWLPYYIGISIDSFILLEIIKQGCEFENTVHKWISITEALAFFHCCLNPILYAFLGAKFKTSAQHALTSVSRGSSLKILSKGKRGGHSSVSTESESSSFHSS", "assay": "Antagonist activity at SDF-1-activated CXCR4 (unknown origin) overexpressed in human U2OS cells preincubated for 30 mins followed by SDF-1 addition measured after 5 hrs by beta-lactamase reporter gene assay", "assay_type": "functional, cell-based"}, "[2]": {"target": "T1, C-X-C chemokine receptor type 2 (Homo sapiens, UniProt P25025)", "T1 sequence (P25025 whole entry)": "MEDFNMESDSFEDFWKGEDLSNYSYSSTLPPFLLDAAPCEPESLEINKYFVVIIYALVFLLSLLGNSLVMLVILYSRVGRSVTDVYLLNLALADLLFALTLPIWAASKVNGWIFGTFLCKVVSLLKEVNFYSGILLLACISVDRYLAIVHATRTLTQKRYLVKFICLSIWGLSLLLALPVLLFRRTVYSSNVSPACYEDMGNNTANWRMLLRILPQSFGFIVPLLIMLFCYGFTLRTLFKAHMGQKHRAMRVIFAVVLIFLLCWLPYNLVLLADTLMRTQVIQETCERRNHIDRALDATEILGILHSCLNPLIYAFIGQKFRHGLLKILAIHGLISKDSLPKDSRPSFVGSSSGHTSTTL", "assay": "Antagonist activity at CXCL8-activated CXCR2 (unknown origin) overexpressed in human U2OS cells preincubated for 30 mins followed by CXCL8 addition measured after 5 hrs by beta-lactamase reporter gene assay", "assay_type": "functional, cell-based"}, "[3]": {"assay": "Intrinsic clearance in human hepatocytes measured per million cells at 100 uM incubated upto 90 mins by LCMS/MS analysis", "assay_type": "ADME, cell-based, Hepatocyte", "settings": "read-out: CLH"}, "[4]": {"assay": "Effective half life in human", "assay_type": "ADME", "settings": "read-out: t1/2eff (converted)"}, "[5]": {"target": "T1, C-X-C chemokine receptor type 2", "assay": "Antagonist activity at CXCR2 (unknown origin)", "assay_type": "functional"}}}
{"smiles": "CC(=O)c1c(C)oc2c1cc(NS(=O)(=O)c1ccc(C(C)(C)C)cc1)c1ccccc12", "values": [{"measurement": "IC50", "setting": "[1]", "result": "> 50000", "unit": "nM"}]}
{"smiles": "COc1cc(NS(=O)(=O)c2ccc(C)cc2)c2ncccc2c1", "values": [{"measurement": "IC50", "setting": "[2]", "result": 400, "unit": "nM"}]}
{"smiles": "C[C@@H](Oc1cc(NS(=O)(=O)N2CCC2)nc(SCc2cccc(F)c2F)n1)[C@@H](O)CO", "values": [{"measurement": "hepatocyte CLint at 100 µM", "setting": "[3]", "result": "< 5", "unit": "µL/min/1e6 cells"}, {"measurement": "half-life", "setting": "[4]", "result": 4, "unit": "h"}]}
{"smiles": "COc1cc(NS(=O)(=O)c2cccc3nsnc23)c2ncccc2c1", "values": [{"measurement": "IC50", "setting": "[2]", "result": 360, "unit": "nM"}, {"measurement": "IC50", "setting": "[1]", "result": 590, "unit": "nM"}]}
{"smiles": "C[C@@H](C(=O)NS(C)(=O)=O)c1ccc(OS(=O)(=O)C(F)(F)F)cc1", "note": "[LADARIXIN]", "values": [{"measurement": "IC50", "setting": "[5]", "result": 0.7, "unit": "nM"}]}
{"smiles": "O=C(Nc1ccc(F)cc1)c1cnc(SCc2cc(OC(F)(F)F)ccc2B(O)O)nc1", "note": "[SX-682]", "values": [{"measurement": "IC50", "setting": "[5]", "result": 22, "unit": "nM"}]}
